For assay [1], the system named is APC:protein S. Briefly: Modified dilute prothrombin time clotting assay with glycolipid vesicles added to normal plasma. The assay is classed as biochemical, human. To be noted: for effect on APC:protein S anticoagulant response: 0-100 mg/ml; for anticoagulant response of plasma to APC:protein S (clotting time prolongation, modified PT assay): glycolipid vesicles added to normal plasma, APC plus protein S present; for effect on baseline clotting times: without APC or protein S added. The procedure: Anticoagulant response to APC:protein S. Modified dilute prothrombin time based assays were performed as previously described. Briefly, 7.5 μl of test plasma was mixed with fibrinogen (0.6 mg/ml final concentration) and APC (8.7 nM final) plus protein S (28 nM final) or buffer, and incubated 3 min at 37° C. (100 μl total volume). Clotting times were measured after addition of 50 μl of recombinant human tissue factor (Innovin from DADE, Miami, Fla.) diluted 1:40 in Tris (tris[hydroxymethyl] aminomethane)-buffered saline containing 0.5% bovine serum albumin (TBSA) and 30 mM CaCl2. Baseline clotting times without addition of APC:protein S were also determined. For studies of the effects of glycolipid vesicles or glucocerebrosidase treatment on clotting assays, a 1:64 dilution of Innovin was used in the presence or absence of APC and protein S. In the study of the effect of glucocerebrosidase, 13 nM APC and 42 nM protein S were employed.
Preparation of glycolipid vesicles. To prepare extruded glycolipid vesicles, dried glycolipids GlcCer, Gb3Cer, galactosylceramide (GalCer) (Sigma), and LacCer were suspended at 100 μg/ml in TBS at room temperature, vortexed 5 min, and passed through a 0.2 μm filter (Osmonics, Livermore, Calif.). Concentrations of glycolipids recovered after filtration were determined by HPLC analysis as described above.

Assay [2] concerns the target T1, factor Va (Homo sapiens, UniProt P12259).
T1 construct: APC cleaves the heavy chain of factor Va at Arg506, and then Arg306, and perhaps Arg679
T1 sequence (P12259 29-737 limits assumed): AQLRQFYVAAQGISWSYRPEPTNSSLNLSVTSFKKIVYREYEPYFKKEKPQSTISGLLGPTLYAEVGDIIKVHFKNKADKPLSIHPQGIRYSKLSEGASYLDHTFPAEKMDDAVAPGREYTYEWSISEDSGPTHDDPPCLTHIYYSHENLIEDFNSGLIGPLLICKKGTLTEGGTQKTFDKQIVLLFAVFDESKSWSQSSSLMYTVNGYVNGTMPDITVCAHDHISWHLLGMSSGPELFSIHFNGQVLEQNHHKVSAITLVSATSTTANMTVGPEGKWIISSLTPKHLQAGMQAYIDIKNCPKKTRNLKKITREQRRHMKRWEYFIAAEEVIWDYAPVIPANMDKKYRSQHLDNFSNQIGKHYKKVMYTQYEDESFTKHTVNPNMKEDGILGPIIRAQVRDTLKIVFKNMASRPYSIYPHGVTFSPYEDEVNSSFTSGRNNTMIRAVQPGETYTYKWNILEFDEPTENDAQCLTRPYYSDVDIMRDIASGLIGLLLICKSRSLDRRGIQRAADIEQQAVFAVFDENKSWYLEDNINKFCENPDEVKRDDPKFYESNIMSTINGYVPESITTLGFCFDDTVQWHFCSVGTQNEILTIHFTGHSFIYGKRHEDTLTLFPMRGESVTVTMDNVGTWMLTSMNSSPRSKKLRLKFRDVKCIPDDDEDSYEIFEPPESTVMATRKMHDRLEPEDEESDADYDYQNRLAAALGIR
T1 sequence (P12259 1574-2224 limits assumed): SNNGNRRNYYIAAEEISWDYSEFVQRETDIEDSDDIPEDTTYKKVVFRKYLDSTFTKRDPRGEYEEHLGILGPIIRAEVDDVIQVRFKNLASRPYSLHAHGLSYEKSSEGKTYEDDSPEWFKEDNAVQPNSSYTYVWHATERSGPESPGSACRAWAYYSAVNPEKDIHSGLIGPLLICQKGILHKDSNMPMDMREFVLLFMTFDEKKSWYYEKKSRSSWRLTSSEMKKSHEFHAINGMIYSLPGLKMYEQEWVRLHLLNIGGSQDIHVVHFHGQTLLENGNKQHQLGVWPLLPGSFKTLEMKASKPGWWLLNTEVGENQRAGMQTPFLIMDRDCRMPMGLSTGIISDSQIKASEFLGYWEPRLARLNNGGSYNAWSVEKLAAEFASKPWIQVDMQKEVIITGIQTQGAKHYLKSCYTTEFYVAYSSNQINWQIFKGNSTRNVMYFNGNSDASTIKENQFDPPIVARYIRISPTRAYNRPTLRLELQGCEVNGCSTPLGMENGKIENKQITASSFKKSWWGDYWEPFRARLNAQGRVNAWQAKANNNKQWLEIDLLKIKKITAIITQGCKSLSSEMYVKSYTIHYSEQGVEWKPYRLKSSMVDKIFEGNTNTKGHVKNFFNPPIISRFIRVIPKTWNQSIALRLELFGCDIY
Briefly: Factor Va inactivation by APC/protein S with 1, 5 or 10% glycolipid in PC/PS vesicles (Example 7). In kind it is biochemical. Conditions: for enhancement of factor Va inactivation by APC/protein S: APC 0.16 nM, 5 min; for effect on factor Va inactivation by APC:protein S, glycolipid incorporated into PC/PS vesicles (overall statement): glycolipid content not specified. The procedure:
FIGS. 6A-6E. Anticoagulant response of plasma to APC/protein S is enhanced by addition of glycolipids. Purified factor Va (1.5 nM) was incubated with APC (0.16 nM final)/protein S (18 nM final) and varying lipid vesicles to allow factor Va inactivation for five minutes and then the residual factor Va activity was determined using prothrombin time clotting assays.
Purified factor Va (1.5 nM) was incubated with APC (0.16 nM final)/protein S (18 nM final) and varying lipids vesicles to allow factor Va inactivation for 5 min., and then the residual factor Va activity was determined using prothrombin time clotting assays.

The test system of assay [3] is APC:protein S. Briefly: Factor Xa-1-stage clotting assays without addition of exogenous lipids. The assay is classed as biochemical. To be noted: presence versus absence of APC:protein S; data not shown.
Assay [4] deals with T1, factor Va. Kind of assay: Factor Va inactivation assay with purified proteins (GlcCer vesicles and multicomponent PC/PS/GlcCer vesicles). In kind it is biochemical. Here is the method:
Large unilamellar multicomponent vesicles were prepared generally as described. (27) Appropriate aliquots of PC, PS and GlcCer were mixed and dried under nitrogen. The lipid mixture was hydrated at a concentration of 6.25 mM lipid in TBS and freeze-thawed 10 times using liquid nitrogen, and the solution of vesicles was passed 15 times through a 0.2 μm filter (Millipore). Concentrations of glycolipid recovered after filtration were determined by HPLC analysis as described above. PC concentration was determined by an enzymatic […] method (Phospholipids B kit, Wako Chemical USA, Inc., Richmond, Va.).
Factor Va inactivation assay. To study the time course of factor Va inactivation by APC:protein S, mixtures containing GlcCer vesicles or control PC vesicles (21.5 μM) or buffer, APC (6 nM final), protein S (18 nM final), and factor Va (1.5 nM) with 5 mM CaCl2 were incubated at 37° C. Aliquots were withdrawn at various times and the reaction was quenched by adding ethylenediamine tetraacetic acid (EDTA) prior to determination of residual factor Va activity. […] The residual factor Va activity was quantitated using prothrombin time clotting assays and standard log-log calibration curves of clotting time versus factor Va concentration generated using purified factor Va and factor V deficient plasma. […]

Where [5] appears, read: 1% glycolipid in PC/PS vesicles.
The mark [6] stands for this setting: 5% glycolipid in PC/PS vesicles.
The mark [7] stands for this setting: 10% glycolipid in PC/PS vesicles.

“Also recorded” adds a separate entry of the source.

Take `OC[C@H]1OC(O)[C@H](O)[C@@H](O)[C@@H]1O` (stereo partly drawn) [D-Glc, reference compound]: the “effect on APC:protein S anticoagulant response” value in the assay with APC:protein S [1] (data not shown) is reported as “Neither D-Glc alone nor ceramide alone (0-100 mg/ml) affected”. The “anticoagulant response of plasma to APC:protein S (clotting time prolongation, modified PT assay)” value (“anticoagulant response of plasma” for short) in the assay with APC:protein S [1] was “neither D-Glc alone nor ceramide alone was anticoagulantly active”.

globotriaosylceramide [Gb3Cer]: in the assay with APC:protein S [1], the “anticoagulant response of plasma” value was “activity very similar to GlcCer; also recorded: approximately equally active; also recorded: enhanced”. Further, the “enhancement of factor Va inactivation by APC/protein S” value (“enhancement … by APC/protein S” for short) on factor Va [2] (setting [5]) is reported as “enhanced inactivation of factor Va significantly even at 1 μg/ml”; at factor Va [2] (setting [6]), “enhanced much more”. For the same molecule, the “effect on factor Va inactivation by APC:protein S, glycolipid incorporated into PC/PS vesicles (overall statement)” value (“effect … (overall statement)” below) at factor Va [2] is on record as “significantly directly enhance inactivation”.

Consider globotetraosylceramide [Gb4Cer], for which the “effect … (overall statement)” value at factor Va [2] is reported as “much weaker effect”.

Regarding lactosylceramide [LacCer], in the assay on APC:protein S [1], the “anticoagulant response of plasma” value is reported as “much lower activity; also recorded: does not possess this anticoagulant property”. In addition, the “enhancement … by APC/protein S” value at factor Va [2] (setting [5]) is reported as “little like GlcCer”. In addition, at factor Va [2] (setting [7]), the “factor Va inactivation reached” value is “up to 90%” and the “enhancement … by APC/protein S” value was “dramatically enhanced factor Va inactivation”. The “effect … (overall statement)” value at factor Va [2] was “significantly directly enhance inactivation”.

As for galactosylceramide [GalCer], in the assay with APC:protein S [1], the “anticoagulant response of plasma” value was “did not enhance APC:protein S action; also recorded: inactive” and the “effect on baseline clotting times” value is reported as “no effect on baseline clotting times”. The “enhancement of factor Va inactivation” value at factor Va [2] (above 10 μg/ml of total lipid, 5 and 10% glycolipid in PC/PS vesicles) is listed as “enhanced factor Va inactivation by APC/protein C like GlcCer in PC/PS vesicle”. The “effect on factor Va inactivation compared with GlcCer in PC/PS” value at factor Va [2] (below 10 μg/ml) is “not as well as GlcCer in PC/PS”. The “effect … (overall statement)” value at factor Va [2] is given as “significantly directly enhance inactivation”.

As for ceramide [reference compound], in the assay on APC:protein S [1] (data not shown), the “effect on APC:protein S anticoagulant response” value was “Neither D-Glc alone nor ceramide alone (0-100 mg/ml) affected”. Moreover, the “anticoagulant response of plasma” value in the assay on APC:protein S [1] is “neither D-Glc alone nor ceramide alone was anticoagulantly active”.

With glucosylceramide [GlcCer], in the assay on APC:protein S [1] (APC alone added without protein S), the “clotting time prolongation, modified PT assay” value was “much less clotting time prolongation”. Also, in the assay on APC:protein S [1], the “anticoagulant response of plasma” value is “dose-dependent marked prolongation; also recorded: dose-dependently enhances the anticoagulant response; also recorded: dose-dependently enhanced this anticoagulant response; also recorded: very active” and the “effect on baseline clotting times” value is given as “without affecting baseline clotting time”. The “effect on clotting times, modified PT assay” value in the assay on APC:protein S [1] (protein S alone added in the absence of APC, data not shown) is “no effect on clotting times”. Moreover, the “clotting time prolongation in factor Xa-1-stage assays” value in the assay with APC:protein S [3] is given as “clotting time prolongation in the presence but not absence of APC:protein S”. Moreover, on factor Va [4], the “inactivation of purified factor Va by APC:protein S (overall statement)” value is “directly enhanced inactivation of purified factor Va; also recorded: enhances factor Va inactivation”. Besides, the “enhancement … by APC/protein S” value on factor Va [2] (setting [5]) was “little enhancement effect”. Further, at factor Va [2] (setting [6]), the “factor Va inactivation reached” value is listed as “up to 60%” and the “enhancement … by APC/protein S” value is “enhanced inactivation of factor Va much more”. In addition, on factor Va [2] (5 and 10% GlcCer in PC/PS vesicle), the “concentration from which the enhancement effect was observed” value is ≥ 1 µg/mL. Also, on factor Va [2] (setting [7]), the “factor Va inactivation reached” value is “up to 60%” and the “enhancement … by APC/protein S” value was “enhanced inactivation of factor Va much more”. The “effect … (overall statement)” value at factor Va [2] is “significantly directly enhance inactivation”.

The record behind these values is US6756208B2, “Plasma glucosylceramide deficiency as risk factor for thrombosis and modulator of anticoagulant protein C” (priority 2001, dated 2004).
